Results as given in US20230089073A1 (Carmot Therapeutics, Inc., priority 2021, published 2023).

Molecular target: T1, human GLP-1 receptor (Homo sapiens, UniProt P43220)
T1 construct: expressed in transfected cells
Assay: GLP-1R cAMP Assay
Format: cell-based
Details: cAMP accumulation in CHO cells stably overexpressing the human GLP-1 receptor; 30 min treatment; HitHunter cAMP kit; read-out: EC50
In short: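 CHO cells stably overexpressing human GLP-1R, 10,000 cells/well, treated with compound in 20-point dose response in triplicate for 30 min. cAMP accumulation read by enzyme-complementation luminescence after lysis and overnight incubation; dose-response curves fitted.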

T1 sequence (P43220 24-463): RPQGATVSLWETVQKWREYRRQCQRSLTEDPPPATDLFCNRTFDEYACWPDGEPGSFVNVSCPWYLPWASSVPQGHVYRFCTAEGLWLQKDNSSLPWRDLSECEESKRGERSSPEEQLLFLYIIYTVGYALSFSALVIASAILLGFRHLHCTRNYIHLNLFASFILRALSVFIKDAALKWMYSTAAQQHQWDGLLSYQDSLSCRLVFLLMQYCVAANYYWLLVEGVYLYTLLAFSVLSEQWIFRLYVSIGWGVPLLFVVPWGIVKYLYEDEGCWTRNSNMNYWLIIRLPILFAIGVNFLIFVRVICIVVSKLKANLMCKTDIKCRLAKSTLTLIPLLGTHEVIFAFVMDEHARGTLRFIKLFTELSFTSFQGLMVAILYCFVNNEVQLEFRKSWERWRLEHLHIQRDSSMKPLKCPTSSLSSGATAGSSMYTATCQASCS

SMILES | EC50 [nM]
N#Cc1ccc(OCc2nccc(O[C@H]3C[C@H]4C[C@@H]3CN4Cc3nc4ccc(C(=O)O)cc4n3C[C@@H]3CCO3)n2)c(F)c1 [Compound 507, 2-{[(1R,4R,5S)-5-({2-[(4-cyano-2-fluorophenoxy)methyl]pyrimidin-4-yl}oxy)-2-azabicyclo[2.2.1]heptan-2-yl]methyl}-1-{[(2S)-oxetan-2-yl]methyl}-1H-1,3-benzodiazole-6-carboxylic acid] | < 50
Cc1cccc(Oc2ccc(C(=O)N3CCN(Cc4nc5ccc(C(=O)O)cc5n4C[C@@H]4CCO4)CC3)cc2)c1 [Compound 21, 2-({4-[4-(3-methylphenoxy)benzoyl]piperazin-1-yl}methyl)-1-{[(2S)-oxetan-2-yl]methyl}-1H-1,3-benzodiazole-6-carboxylic acid] | > 500
CCn1cncc1Cn1c(CN2CCC([C@H](OC)c3cccc(COc4ccc(Cl)cc4Cl)c3)CC2)nc2ccc(C(=O)O)cc21 (single isomer, unassigned) [Example 205] | 50 to 500
CCn1cncc1Cn1c(CN2CCC(Oc3cccc(COc4ccc(Cl)cc4F)n3)CC2)nc2ccc(C(=O)O)cc21 [Compound 247, 2-{[4-({6-[(4-chloro-2-fluorophenoxy)methyl]pyridin-2-yl}oxy)piperidin-1-yl]methyl}-1-[(1-ethyl-1H-imidazol-5-yl)methyl]-1H-1,3-benzodiazole-6-carboxylic acid] | < 50
O=C(O)c1ccc2nc(CN3CCC(Oc4ccnc(COc5ccc(F)cc5F)n4)CC3)n(C[C@@H]3CCO3)c2c1 [Compound 479, 2-{[4-({2-[(2,4-difluorophenoxy)methyl]pyrimidin-4-yl}oxy)piperidin-1-yl]methyl}-1-{[(2S)-oxetan-2-yl]methyl}-1H-1,3-benzodiazole-6-carboxylic acid] | < 50
O=C(O)c1cc(F)c2nc(CN3CCC(Oc4ccnc(COc5ccc(Cl)cc5F)n4)CC3)n(CC3(CF)CC3)c2c1 [Compound 324] | < 50
O=C(O)c1cc(F)c2nc(CN3CCC(Oc4ccnc(COc5ccc(F)cc5F)n4)CC3)n(C[C@@H]3CCO3)c2c1 [Compound 482, 2-{[4-({2-[(2,4-difluorophenoxy)methyl]pyrimidin-4-yl}oxy)piperidin-1-yl]methyl}-4-fluoro-1-{[(2S)-oxetan-2-yl]methyl}-1H-1,3-benzodiazole-6-carboxylic acid] | < 50
C[C@H]1C[C@@H](Oc2ccnc(COc3ccc(F)cc3F)c2)CCN1Cc1nc2ccc(C(=O)O)cc2n1C[C@@H]1CCO1 [Compound 497, 2-{[(2S,4S)-4-({2-[(2,4-difluorophenoxy)methyl]pyridin-4-yl}oxy)-2-methylpiperidin-1-yl]methyl}-1-{[(2S)-oxetan-2-yl]methyl}-1H-1,3-benzodiazole-6-carboxylic acid] | < 50
N#Cc1ccc(COc2cccc(C(=O)N3CCN(Cc4nc5ccc(C(=O)O)cc5n4C[C@@H]4CCO4)CC3)c2)c(F)c1 [Compound 66, 2-[(4-{3-[(4-cyano-2-fluorophenyl)methoxy]benzoyl}piperazin-1-yl)methyl]-1-{[(2S)-oxetan-2-yl]methyl}-1H-1,3-benzodiazole-6-carboxylic acid] | > 500
O=C(O)c1ccc2nc(CN3CCC(Cc4cccc(OCc5ccc(Cl)cc5Cl)n4)CC3)n(C[C@@H]3CCO3)c2c1 [Compound 200, 2-{[4-({6-[(2,4-dichlorophenyl)methoxy]pyridin-2-yl}methyl)piperidin-1-yl]methyl}-1-{[(2S)-oxetan-2-yl]methyl}-1H-1,3-benzodiazole-6-carboxylic acid] | < 50
N#CCC1(Cn2c(CN3CCC(Oc4ccnc(COc5ccc(Cl)cc5Cl)n4)CC3)nc3c(F)cc(C(=O)O)cc32)CC1 [Compound 341] | < 50
O=C(O)c1ccc2nc(CN3CCC(Oc4ccnc(COc5ccc(C(F)F)cc5F)c4)CC3)n(C[C@@H]3CCO3)c2c1 [Example 297, (S)-2-((4-((2-((4-(Difluoromethyl)-2-fluorophenoxy)methyl)pyridin-4-yl)oxy)piperidin-1-yl)methyl)-1-(oxetan-2-ylmethyl)-1H-benzo[d]imidazole-6-carboxylic acid] | < 50
COC(=O)c1ccc2nc(CN3CCN(C(=O)c4cccc(Oc5ccc(C)cc5Cl)c4)CC3)n(C[C@@H]3CCO3)c2c1 [Compound 23, methyl 2-({4-[3-(2-chloro-4-methylphenoxy)benzoyl]piperazin-1-yl}methyl)-1-{[(2S)-oxetan-2-yl]methyl}-1H-1,3-benzodiazole-6-carboxylate] | > 500
CCn1cncc1Cn1c(CN2CCN(C(=O)c3ccc(COc4ccc(Cl)cc4Cl)o3)CC2)nc2ccc(C(=O)O)cc21 [Compound 47, 2-[(4-{5-[(2,4-dichlorophenoxy)methyl]furan-2-carbonyl}piperazin-1-yl)methyl]-1-[(1-ethyl-1H-imidazol-5-yl)methyl]-1H-1,3-benzodiazole-6-carboxylic acid] | < 50
N#Cc1cc(F)c(F)cc1OCc1nccc(OC2CCN(Cc3nc4c(F)cc(C(=O)O)cc4n3C[C@@H]3CCO3)CC2)n1 [Compound 505, 2-{[4-({2-[(2-cyano-4,5-difluorophenoxy)methyl]pyrimidin-4-yl}oxy)piperidin-1-yl]methyl}-4-fluoro-1-{[(2S)-oxetan-2-yl]methyl}-1H-1,3-benzodiazole-6-carboxylic acid] | < 50
Cc1ccc(N(C)c2cccc(C(=O)N3CC4CCC(C3)N4Cc3nc4ccc(C(=O)O)cc4n3C[C@@H]3CCO3)c2)c(Cl)c1 [Compound 87, 2-[(3-{3-[(2-chloro-4-methylphenyl)(methyl)amino]benzoyl}-3,8-diazabicyclo[3,2.1]octan-8-yl)methyl]-1-{[(2S)-oxetan-2-yl]methyl}-1H-1,3-benzodiazole-6-carboxylic acid] | 50 to 500
CCn1cncc1Cn1c(CN2CCC([C@@H](OC)c3cccc(COc4ccc(Cl)cc4Cl)c3)CC2)nc2ccc(C(=O)O)cc21 (single isomer, unassigned) [Example 204] | 50 to 500
CCn1cncc1Cn1c(CN2CCC(Cc3cnc(COc4ncc(C5CC5)cc4Cl)o3)CC2)nc2ccc(C(=O)O)cc21 [Compound 144, 2-({4-[(2-{[(3-chloro-5-cyclopropylpyridin-2-yl)oxy]methyl}-1,3-oxazol-5-yl)methyl]piperidin-1-yl}methyl)-1-[(1-ethyl-1H-imidazol-5-yl)methyl]-1H-1,3-benzodiazole-6-carboxylic acid] | < 50
CCn1cncc1Cn1c(CN2CCC(Cc3ccc(COc4ccc(Cl)cc4Cl)o3)CC2)nc2ccc(C(=O)O)nc21 [Compound 108, 2-{[4-({5-[(2,4-dichlorophenoxy)methyl]furan-2-yl}methyl)piperidin-1-yl]methyl}-3-[(1-ethyl-1H-imidazol-5-yl)methyl]-3H-imidazo[4,5-b]pyridine-5-carboxylic acid] | < 50
C[C@@H](Oc1ccc(Cl)cc1Cl)c1ccc(C(=O)N2CCN(Cc3nc4ccc(C(=O)O)cc4n3C[C@@H]3CCO3)CC2)o1 (relative stereo) [Example 94, 2-((4-(5-((R)-1-(2,4-dichlorophenoxy)ethyl)furan-2-carbonyl)piperazin-1-yl)methyl)-1-(((S)-oxetan-2-yl)methyl)-1H-benzo[d]imidazole-6-carboxylic acid] | > 500
CCn1cncc1Cn1c(CN2CCC(Oc3ccnc(COc4ccc(Cl)cc4C#N)c3)CC2(C)C)nc2ccc(C(=O)O)cc21 (stereo not shown) [Example 276, 2-((4-((2-((4-Chloro-2-cyanophenoxy)methyl)pyridin-4-yl)oxy)-2,2-dimethylpiperidin-1-yl)methyl)-1-((1-ethyl-1H-imidazol-5-yl)methyl)-1H-benzo[d]imidazole-6-carboxylic acid] | < 50
N#Cc1ccc(OCc2nccc(OC3CCN(Cc4nc5ccc(C(=O)O)cc5n4C[C@@H]4CCO4)CC3)n2)c(F)c1 [Example 262, (S)-2-((4-((2-((4-Cyano-2-fluorophenoxy)methyl)pyrimidin-4-yl)oxy)piperidin-1-yl)methyl)-1-(oxetan-2-ylmethyl)-1H-benzo[d]imidazole-6-carboxylic acid] | < 50
O=C(O)c1ccc2nc(CN3CCC(Oc4ccnc(COc5ccc(Cl)cc5F)c4)CC3)n(C[C@@H]3CCO3)c2n1 [Compound 378] | < 50
CCn1cncc1Cn1c(CN2CCC(Cc3ccnc(COc4ccc(Cl)cc4Cl)c3)CC2)nc2ccc(C(=O)O)cc21 [Example 128, 2-((4-((2-((2,4-Dichlorophenoxy)methyl)pyridin-4-yl)methyl)piperidin-1-yl)methyl)-1-((1-ethyl-1H-imidazol-5-yl)methyl)-1H-benzo[d]imidazole-6-carboxylic acid] | < 50
Cc1ccc(N(C)c2cccc(CC3CCN(Cc4nc5ccc(C(=O)O)cc5n4C[C@@H]4CCO4)CC3)c2)c(Cl)c1 [Example 116, (S)-2-((4-(3-((2-Chloro-4-methylphenyl)(methyl)amino)benzyl)piperidin-1-yl)methyl)-1-(oxetan-2-ylmethyl)-1H-benzo[d]imidazole-6-carboxylic acid] | < 50
O=C(O)c1ccc2nc(CN3CCC(Oc4cc(COc5ccc(Cl)cc5Cl)ccn4)CC3)n(C[C@@H]3CCO3)c2c1 [Example 178, (S)-2-((4-((4-((2,4-Dichlorophenoxy)methyl)pyridin-2-yl)oxy)piperidin-1-yl)methyl)-1-(oxetan-2-ylmethyl)-1H-benzo[d]imidazole-6-carboxylic acid] | 50 to 500
CCn1cncc1Cn1c(CN2CCN(C(=O)c3ccc(COc4ccc(Cl)cc4Cl)s3)CC2)nc2ccc(C(=O)O)cc21 [Compound 71, 2-[(4-{5-[(2,4-dichlorophenoxy)methyl]thiophene-2-carbonyl}piperazin-1-yl)methyl]-1-[(1-ethyl-1H-imidazol-5-yl)methyl]-1H-1,3-benzodiazole-6-carboxylic acid] | > 500
Cc1ccc(N(C)c2cccc(CC3=CCN(Cc4nc5ccc(C(=O)O)cc5n4C[C@@H]4CCO4)CC3)c2)c(Cl)c1 [Compound 117, 2-{[4-({3-[(2-chloro-4-methylphenyl)(methyl)amino]phenyl}methyl)-1,2,3,6-tetrahydropyridin-1-yl]methyl}-1-{[(2S)-oxetan-2-yl]methyl}-1H-1,3-benzodiazole-6-carboxylic acid] | 50 to 500
